Test results taken from patent US12162878B2 (HINOVA PHARMACEUTICALS INC., priority 2018, dated 2024).

How the values were obtained:
BRD2(1,2) = BRD2(1,2) (Homo sapiens (Human), UniProt P25440); test: AlphaScreen binding of compounds on BRD2 (D1+D2); conditions: read-out: IC50 against BRD2(1,2)
Excerpt: (§1) Homogeneous time-resolved fluorescence technology (HTRF) was used to determine the binding effect of compounds on BRD4 (D1+D2) and BRDT (D1) proteins, as well as AlphaScreen method was used to detect the binding effect of compounds on BRD2 (D1+D2) and BRD3 (D1+D2) proteins.
(§2) The compounds were screened in vitro, and each compound was serially diluted to 10 concentrations. Four proteins BRD4 (D1+D2), BRDT (D1), BRD2 (D1+D2) and BRD3 (D1+D2) were chosen to determine the IC50 values of compounds (see Table 1).
(§3) 4. Compound treatment: The test compound was dissolved in dimethyl sulfoxide (DMSO), and the storage concentration was 10 mM.
(§4) 6. AlphaScreen Detection Procedures:
(§5) 1) Preparing One-Fold Concentration of Detection Buffer
(§6) One-fold concentration of detection buffer was prepared (Improved HEPES buffer)
(§7) 2) Gradient Dilution of Compounds
(§8) Echo automatic sampler was used to transfer the compound to the detection plate for gradient dilution, so that the final concentration of dimethyl sulfoxide was 0.1%.
(§9) 3) Preparation of Protein Solution
(§10) The protein was dissolved in one-fold concentration of detection buffer.
(§11) 4) Preparation of Substrate Solution
(§12) The peptide was dissolved in one-fold concentration of detection buffer to prepare the substrate solution.
(§13) 5) 5 μL protein solution was transferred to the detection plate, and one-fold concentration of detection buffer (5 μL) was placed in the negative control wells.
(§14) 6) The plate was incubated for 15 min at room temperature.
(§15) 7) 5 μL substrate solution was added to each well to start the reaction.
(§16) 8) The plate was incubated for additional 60 min at room temperature.
(§17) 9) Preparation of acceptor solution and donor solution in one-fold concentration of assay buffer Acceptor solution (15 μL) and donor solution (15 μL) were respectively added, and then incubated at room temperature for 60 min and protected against exposure to light.
(§18) 10) The endpoint was read in EnSpire and Alpha mode.
(§19) The experimental data were recorded in an Excel file and equation (1) was used to get the inhibition rate. Inh%=(Max−Signal)/(Max−Min)*100 Equation (1):
(§20) The obtained data were input into GraphPad software, and equation (2) was used to obtain the IC50 value. Y=Bottom+(Top−Bottom)/(1+10^((Log IC50−X)*Hill Slope)) Formula (2): […]
(§21) Wherein, Y axis was the inhibition rate, and the X axis was the compound concentration.

BRD3(1,2) = BRD3(1,2) (Homo sapiens (Human), UniProt Q15059); test: AlphaScreen binding of compounds on BRD3 (D1+D2); conditions: read-out: IC50 against BRD3(1,2)
BRD3(1,2), sequence (Q15059 29-417): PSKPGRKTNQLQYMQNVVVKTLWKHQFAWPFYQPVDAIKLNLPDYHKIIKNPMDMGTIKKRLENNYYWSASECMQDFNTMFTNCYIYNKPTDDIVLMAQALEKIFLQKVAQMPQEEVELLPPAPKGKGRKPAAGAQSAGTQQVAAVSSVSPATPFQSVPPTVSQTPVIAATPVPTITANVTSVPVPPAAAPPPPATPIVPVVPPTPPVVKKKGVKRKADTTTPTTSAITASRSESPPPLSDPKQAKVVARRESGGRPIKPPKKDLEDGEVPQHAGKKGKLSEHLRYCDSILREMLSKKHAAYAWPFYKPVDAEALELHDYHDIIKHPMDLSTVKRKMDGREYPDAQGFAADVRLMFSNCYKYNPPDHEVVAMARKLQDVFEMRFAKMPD
Excerpt: as §1, §2, §3, §4, §5, §6, §7, §8, §9, §10, §11, §12, §13, §14, §15, §16, §17, §18, §19, §20, §21

BRDT(D1) = BRDT(D1) (Homo sapiens (Human), UniProt Q58F21); test: HTRF binding of compounds on BRDT (D1); conditions: read-out: IC50 against BRDT(D1)
Excerpt: as §1, §2, §3
5. Steps for Homogeneous Time-Resolved Fluorescence Detection:
1) According to the arrangement of the detection plate, all compounds were diluted in Echo plate.
The final dilution concentration of DMSO is 0.1%.
2) The compound or DMSO was transferred to a 384-well detection plate with the Echo automatic sampler.
3) Two-fold concentration of the mixture of protein and peptide was added to the detection plate.
4) Two-fold concentration of mixed detection solution was added to the test plate, and shaken for 30 s.
5) Incubating for 2 h at room temperature.
6) Fluorescence signal was read on Envision multi-function microplate reader (excitation light wavelength being 340 nm, and emission light wavelength being 615 nm and 665 nm).
The experimental data were recorded in an Excel file, and equation (1) was used to obtain the inhibition rate. Inh%=(Max−Signal)/(Max−Min)*100 Equation (1):
The obtained data was recorded in GraphPad software, and equation (2) was used to provide the IC50 values. Y=Bottom+(Top−Bottom)/(1+10^((Log IC50−X)*Hill Slope)) Equation (2): […]
Y axis was the inhibition rate, and X axis was the compound concentration.

MCF-7 cells = test: Inhibition of proliferation of MCF-7 cells (CCK-8); type: cell-based, human; conditions: for IC50: Homo sapiens, MCF7, 144 h, 6 days, CCK-8
Experimental: • MCF-7 cell line (Cell Bank of Chinese Academy of Sciences, TCHu74) • FBS (Gibco, Cat. No. 10099-141) • 0.01M PBS (Biosharp, Cat. No. 162262) • RIPM1640 (Hyclone, Cat. No. 308090.01) • Penicillin-Streptomycin (Hyclone, Cat. No. SV30010) • Cell counting kit-8 (Signalway Antibody, Cat. No. CP002) • DMSO (Sigma, Cat. No. D5879) • Centrifuge Tube, 15 ml (Excell Bio, Cat. No. CS015-0001) • Cell Culture Dish, (Excell Bio, Cat. No. CS016-0128) • 96-well cell culture cluster (Corning, Cat. No. 3599) 3. Experimental Method
1) MCF-7 cells were subcultured in cell culture media, and the cells in good growth condition were seeded in a 96-well plate, 80 μL for each well, thus the number of cells per well was 1000, then the plate was cultured overnight in a 37° C., 5% CO2 cell incubator.
2) The drug was prepared with dimethyl sulfoxide (DMSO) as a 10 mM stock solution. Prior to use, the solution was diluted 3 times with DMSO, and then diluted with a 3-fold gradient to obtain 9 concentration gradients. Then, each concentration of the compound was further diluted 200 times with the culture media (to ensure that DMSO concentration in the culture system was 0.1%), 2 repeat wells for each concentration. The diluted solution of each compound (20 μL) was added to the cell culture well (with a final concentration of 10 μM, 3.3 μM, 1.1 μM . . . ), and shaken gently for mixing.
In addition, three negative control wells containing only cells and three blank control wells containing only culture medium (20 μL DMSO diluted 200 times with culture medium being added to six wells) were included.
(1) After culturing for 6 days, 10 μL CCK-8 was added to each well and cultured for additional 2.5 h in a 37° C., 5% CO2 cell incubator.
(2) The absorbance (OD value) at 450 nm was measured with a multifunctional microplate reader.
(3) The data was analyzed by the Dose-response-inhibition equation in the software GraphPad Prism6, and the IC50 value was obtained.

BRD2(1,2), sequence (P25440 65-459): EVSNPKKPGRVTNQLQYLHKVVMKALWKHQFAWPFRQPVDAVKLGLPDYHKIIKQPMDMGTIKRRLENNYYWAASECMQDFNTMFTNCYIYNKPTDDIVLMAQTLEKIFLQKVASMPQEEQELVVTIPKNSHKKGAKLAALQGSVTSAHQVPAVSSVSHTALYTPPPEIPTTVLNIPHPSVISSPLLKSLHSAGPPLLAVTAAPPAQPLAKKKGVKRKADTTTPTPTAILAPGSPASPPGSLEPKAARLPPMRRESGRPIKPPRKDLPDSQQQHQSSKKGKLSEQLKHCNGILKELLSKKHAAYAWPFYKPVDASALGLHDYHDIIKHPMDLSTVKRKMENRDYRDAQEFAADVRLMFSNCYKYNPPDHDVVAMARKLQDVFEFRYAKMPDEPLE

Row | IC50 (BRD2(1,2)) | IC50 (BRD3(1,2)) | IC50 (BRDT(D1)) | IC50 (MCF-7 cells) | SMILES | inhibitory action on MCF-7 cells (in words) (MCF-7 cells)
1 | 2.3 nM | 5.2 nM | 30 nM | 54 nM | [2H]C([2H])([2H])n1cc(-c2cc(NS(=O)(=O)CC)ccc2N2CCC3(CC2)CC3)c2cc[nH]c2c1=O [Compound 41] | –
2 | – | – | – | 100 nM | [2H]C([2H])([2H])n1cc(-c2cc(S(=O)(=O)CC)ccc2N2CCC3(CC3)C2)c2cc[nH]c2c1=O [Compound 55, 4-(5(ethylsulfonyl)-2-(5-aza-spiro[2.4]heptan-5-yl)phenyl)-6-trideuteromethyl-1H-pyrrolo[2,3-c]pyridin-7(6H)-one] | –
3 | 2 nM | 4.7 nM | 19 nM | 14 nM | [2H]C([2H])([2H])n1cc(-c2cc(S(C)(=O)=O)ccc2N2CCC3(CC2)CC3(F)F)c2cc[nH]c2c1=O [Compound 184, 4-(2-(1,1-difluoro-6-aza-spiro[2.5]octan-6-yl)-5-(methylsulfonyl)phenyl)-6-trideuteromethyl-1H-pyrrolo[2,3-c]pyridin-7(6H)-one] | effective inhibitory action
4 | 1.8 nM | 6.7 nM | 40 nM | – | [2H]C([2H])([2H])n1cc(-c2cc(S(C)(=O)=O)c(F)cc2N2CCC3(CC2)CC3(F)F)c2cc[nH]c2c1=O [Compound 219, 4-(2-(1,1-difluoro-6-aza-spiro[2.5]octan-6-yl)-4-fluoro-5-(methylsulfonyl)phenyl)-6-trideuteromethyl-1H-pyrrolo[2,3-c]pyridin-7(6H)-one] | –
